From patent publication US10307410B2, “Mcl-1 modulating compounds for cancer treatment” (CENTRE REGIONAL DE LUTTE CONTRE LE CANCER FRANCOIS BACLESSE, priority 2014, dated 2019) come the findings set out here.

Holding throughout (format): cell-based
The subject of test [1] is IGROV1-R10 ovarian cancer cells. Put plainly: PARP and caspase 3 cleavage by western blot. Further details: key to PARP cleavage: +: a little band corresponding to the 85 kDa cleaved form of PARP is observable on the western blot; ++: a band corresponding to the 85 kDa cleaved form of PARP is clearly observable on the western blot; +++: PARP in nearly completely cleaved. Particulars: Molecule + Bcl-xL targeting siRNA. The procedure: (§1) Exponentially growing cells were transfected by siRNA as described below, and after 48 h, cells were continuously exposed to (Het)aromatic oligosystems (10, 25 or 50 μM) dissolved in DMSO (<0.1% of total volume) for 4 to 24 supplementary hours.
(§2) Cells were seeded in 25 cm^2 flasks the day before to reach 30-50% confluency at the time of transfection. The transfection INTERFERin™ reagent (Polyplus Transfection, Strasbourg. France) was added to siRNA diluted in Opti-MEM® reduced serum medium (Invitrogen, Cergy-Pontoise, France) and complexes formation was allowed to proceed for 15 min at RT before being applied to cells. The final siRNA concentration in the flasks was 20 nM.
Cells were rinsed with ice-cold PBS, suspended in a lysis buffer [RIPA:NaCl 150 mM, Tris (pH 8) 50 mM, Triton X100 1%, PMSF 4 mM, EDTA 5 mM, NaF 10 mM, NaPPi 10 mM, Na3OV4 1 mM, aprotinin 0.5 μl/ml and 4.6 ml ultra pure water] and incubated on ice for 30 minutes. Lysates were collected after centrifugation (13200 g, 10 min, 4° C.) and protein concentrations were determined using the Bradford assay (Bio-Rad, Hercules, USA). 20 μg of protein were separated by SDS-PAGE on a 4-12% gradient polyacrylamide gel (Invitrogen, Cergy-Pontoise, France) and transferred to Hybond-PVDF membranes (Amersham, Orsay, France). After blocking non-specific binding sites for 1 hour at RT by 5% (w/v) non-fat dry milk in TBS with 0.1% (v/v) Tween20 (T-TBS), the membranes were incubated overnight at 4° C. with the following rabbit monoclonal antibody: PARP, caspase-3 and Bcl-xL, Bim (Cell Signaling Technology, Ozyme, Saint-Quentin-en-Yvelines, France), Mcl-1 (Santa Cruz, Le Perray-en-Yvelines, France), HSP-70, Noxa (Calbiochem, Fontenay-sous-Bois, France), (Cell Signalling) and Actin (Sigma-Aldrich, Saint-Quentin Fallavier, France). Membranes were then washed with T-TBS and incubated for 1 hour with the appropriate horseradish peroxidase-conjugated anti-rabbit or anti-mouse (Amersham, Orsay, France) secondary antibodies. Revelation was done using a luminescent Image Analyzer (GE Healthcare, Orsay, France).

For test [2] the test system is unchanged. Put plainly: DNA content histograms (sub-G1) by flow cytometry. Particulars: Molecule + Bcl-xL targeting siRNA. As for the experimental part:
as §1
Cells were seeded in 25 cm^2 flasks the day before to reach 30-50% confluency at the time of transfection. The transfection INTERFERin™ reagent (Polyplus Transfection, Strasbourg. France) was added to siRNA diluted in Opti-MEM® reduced serum medium (Invitrogen, Cergy-Pontoise, France) and complexes formation was allowed to proceed for 15 min at RT before being applied to cells. […]
Adherent and floating cells were pooled, washed with 1×PBS and centrifuged at 200 g for 5 min before staining by Annexin V, propidium iodide or both, as recommended by the manufacturer (Roche Diagnostic, Indianapolis, USA). Briefly, 100 μl of Annexin V—Flit or propidium iodide or both were added on the cells pellet (10^6 cells) and incubated 15 minutes at room temperature in obscurity. 500 μl of sample buffer was then added on the suspensions that were thereafter analyzed using a Gallios flow cytometer (Beckman Coulter, Roissy, France) and cell cycle distribution was determined using Kaluza acquisition software (Beckman Coulter).

The test system is the same in test [3]. Description: Nuclear morphology after DAPI staining. Further details: key to Apoptotic nuclear features: +: a few condensed or fragmented nuclei are observable after DAPI staining; ++: numerous condensed or fragmented nuclei are observable after DAPI staining (20-50%); +++: most of the nuclei are condensed or fragmented. Particulars: Molecule + Bcl-xL targeting siRNA, DAPI staining. The procedure:
as §1, §2
After treatment, both detached and adherent cells were pooled after trypsinization, applied to a polylysine-coated glass slide by cytocentrifugation and fixed with a solution of ethanol/chloroform/acetic acid (6:3:1). The preparations were then incubated for 15 min at room temperature with 1 μg/ml DAPI solution (Boehringer Mannheim-Roche, Mannheim, Germany), washed in distillated water, mounted under a coverslip in Mowiol (Calbiochem) and analyzed under a fluorescence microscope (BX51, Olympus, Rungis, France).
Cells were fixed with 2.5% glutaraldehyde in PBS buffer, included in agar, rinsed in Sorensen's buffer, post-fixed in osmium tetroxide 1% in Sorensen's buffer, deshydrated in ethanol and embedded in EPON resin. Ultrathin sections were cut and stained with uranyl acetate and lead citrate and examined using a JEOL1011 transmission electron microscope.

Test [4] has the same test system. Put plainly: Cellular morphology / cell detachment, molecule alone or with Bcl-xL targeting siRNA. As to conditions: Molecule + Bcl-xL targeting siRNA. The procedure: as §1, §2

With `Cc1cc(-c2ncc(-c3ccccc3)cc2/C=C/c2ccccc2)cnc1-c1cccnc1` [compound 31348, 3-methyl-5-(5-phenyl-3-styrylpyridin-2-yl)-2-(pyridin-3-yl)pyridine], in test [1], the PARP cleavage entry is listed as “+++”. Moreover, in test [2], the “Sub-G1 (%)” value was determined as 58.8%. Moreover, in test [3], the Apoptotic nuclear features entry was “+++”.

`Cc1cc(-c2ncc(-c3cccnc3)cc2/C=C/c2ccccc2)cnc1-c1ccccc1` [compound 31349, 3-(6-(5-methyl-6-phenylpyridin-3-yl)-5-styrylpyridin-3-yl)pyridine]: the PARP cleavage entry in test [1] is given as “+++”. Moreover, in test [2], the “Sub-G1 (%)” value was determined as 59.2%. Besides, the Apoptotic nuclear features entry in test [3] is “+++”.

As to `COc1ccc(-c2ncc(-c3ncc(-c4cc(OC)c(OC)c(OC)c4)cc3/C=C/c3ccccc3)cc2C)cc1OC` [compound 30850, 5-(3,4,5-trimethoxyphenyl)-2-(6-(3,4-dimethoxyphenyl)-5-methylpyridin-3-yl)-3-styrylpyridine], the “Sub-G1 (%)” value in test [2] is 20.2%. Further, the Apoptotic nuclear features entry in test [3] is “+”.

As for `COc1cc(-c2cnc(-c3cnc(-c4cc(OC)c(OC)c(OC)c4)c(C)c3)c(/C=C/c3ccccc3)c2)cc(OC)c1OC` [compound 30847, 5-(3,4,5-trimethoxyphenyl)-2-(6-(3,4,5-trimethoxyphenyl)-5-methylpyridin-3-yl)-3-styrylpyridine], the “Sub-G1 (%)” value in test [2] came to 22%. The Cell detachment result in test [4] is “± (very few cells were detached from the support (less than 10%))”. Besides, the Apoptotic nuclear features result in test [3] is reported as “+”.

`Cc1cc(-c2ncc(-c3ccn[nH]3)cc2/C=C/c2ccccc2)cnc1-c1ccn[nH]1` [compound 31363, 2-(5-methyl-6-(1H-pyrazol-5-yl)pyridin-3-yl)-5-(1H-pyrazol-5-yl)-3-styrylpyridine]: the “Sub-G1 (%)” value in test [2] is 63.7%. Further, in test [3], the Apoptotic nuclear features entry is reported as “+++”.

In the case of `COc1ccc(-c2cnc(-c3cnc(-c4cc(OC)c(OC)c(OC)c4)c(C)c3)c(/C=C/c3ccccc3)c2)cc1OC` [compound 30849, 5-(3,4-dimethoxyphenyl)-2-(6-(3,4,5-trimethoxyphenyl)-5-methylpyridin-3-yl)-3-styrylpyridine], the “Sub-G1 (%)” value in test [2] was 19.9%. In addition, in test [3], the Apoptotic nuclear features entry is “+”.

`COc1ccc(-c2cnc(-c3cnc(-c4ccc(OC)c(OC)c4)c(C)c3)c(/C=C/c3ccccc3)c2)cc1OC` [compound 30846, 2-(3,4-dimethoxyphenyl)-5-(5-(3,4-dimethoxyphenyl)-3-styrylpyridin-2-yl)-3-methylpyridine]: the “Sub-G1 (%)” value in test [2] is 33.1%. For the same compound, the Apoptotic nuclear features entry in test [3] is given as “+”.

For the compound `Cc1cc(-c2ncc(-c3cccnc3)cc2/C=C/c2ccccc2)cnc1-c1cccc(C/C(N)=N/O)c1` [compound 31367, (1Z)—N′-hydroxy-2-(3-(3-methyl-5-(5-(pyridin-3-yl)-3-styrylpyridin-2-yl)pyridin-2-yl)phenyl)acetamidine], the “Sub-G1 (%)” value in test [2] is 52.7%. For the same compound, the Apoptotic nuclear features result in test [3] is “+++”.

With `Cc1cc(-c2ncc(-c3ccccc3)cc2/C=C/c2ccccc2)cnc1-c1ccccc1` [compound 30814, 3-methyl-2-phenyl-5-(5-phenyl-3-styrylpyridin-2-yl)pyridine], in test [1], the PARP cleavage entry is listed as “+”. The “Sub-G1 (%)” value in test [2] came to 37.2%. Moreover, in test [3], the Apoptotic nuclear features result is given as “+”.

With `Cc1cc(-c2ncc(-c3cnc(Cl)n3C)cc2/C=C/c2ccccc2)cnc1-c1cnc(Cl)n1C` [compound 31351, 5-(2-chloro-1-methyl-1H-imidazol-5-yl)-2-(6-(2-chloro-1-methyl-1H-imidazol-5-yl)-5-methylpyridin-3-yl)-3-styrylpyridine], the “Sub-G1 (%)” value in test [2] came out at 56.7%. For the same compound, in test [3], the Apoptotic nuclear features result was “+++”.

`Cc1cc(-c2ncc(-c3sccc3C)cc2/C=C/c2ccccc2)cnc1-c1sccc1C` [compound 31336, 3-methyl-2-(3-methylthiophen-2-yl)-5-(5-(3-methylthiophen-2-yl)-3-(E)-styrylpyridin-2-yl)pyridine]: the “Sub-G1 (%)” value in test [2] worked out at 48.8%. In addition, in test [3], the Apoptotic nuclear features entry is “++ (numerous condensed or fragmented nuclei are observable after DAPI staining (20-50%))”.

On to `Cc1cc(-c2ncc(-c3cncnc3)cc2/C=C/c2ccccc2)cnc1-c1cncnc1` [compound 31361, 5-(3-methyl-5-(5-(pyrimidin-5-yl)-3-styrylpyridin-2-yl)pyridin-2-yl)pyrimidine], for which the “Sub-G1 (%)” value in test [2] came out at 35.2%. The Apoptotic nuclear features result in test [3] is recorded as “++ (numerous condensed or fragmented nuclei are observable after DAPI staining (20-50%))”.

Regarding `Cc1cc(-c2ncc(-c3ccc(C#N)cc3)cc2/C=C/c2ccccc2)cnc1-c1ccc(C#N)cc1` [compound 30854, 3-methyl-2-(4-cyanophenyl)-5-(5-(4-cyanophenyl)-3-styrylpyridin-2-yl)pyridine], in test [2], the “Sub-G1 (%)” value was 24.3%. Besides, the Cell detachment entry in test [4] was “± (very few cells were detached from the support (less than 10%))”. Moreover, in test [3], the Apoptotic nuclear features entry is on record as “+”.

In the case of `Cc1cc(-c2ncc(-c3cccnc3)cc2/C=C/c2ccccc2)cnc1-c1cccc(O)c1` [compound 31364, 3-(3-methyl-5-(5-(pyridin-3-yl)-3-styrylpyridin-2-yl)pyridin-2-yl)phenol], the “Sub-G1 (%)” value in test [2] was 39.6%. Also, the Apoptotic nuclear features result in test [3] is listed as “++ (numerous condensed or fragmented nuclei are observable after DAPI staining (20-50%))”.
